# According to US20170082611A1, “Methods for Inhibiting Epithelial to Mesenchymal Transition by Inhibition of FOXS1” (Regenerative Research Foundation, priority 2015, published 2017):
# How the values were obtained:
# RPE cells [1] = experiment: p38 blockade in TnT-induced RPE EMT (masses and EMT transcripts); assay type: cell-based, human; conditions: TnT + 10 ng/ml SB202190, 5 days
# Protocol: It was next reasoned that, if p38 is involved in the TnT-induced gene changes observed in SNAIL, SLUG and TWIST transcripts, then blocking p38 should result in the loss of TnT-induced EMT changes. Therefore an experiment was conducted to examine RPE-EMT with an additional condition of TnT+the p38 inhibitor SB202190.
# RPE cells [2] = experiment: FOXS1 expression in EMT+p38 inhibitor condition; assay type: cell-based, human; conditions: TnT + p38 inhibitor, 5 days
# RPE cells [3] = experiment: Screening assay for agents that induce EMT: RPE morphology by light microscope; assay type: cell-based, human; conditions: 10 ng/ml, 5 days, DMEM/F12 with 5% FBS
# Protocol: RPE were plated at a confluency of 30,000 cells in 1 well of a 24-well plate in DMEM/F12 with 5% FBS, adding TGFβ (10 ng/ml) or TNFα (10 ng/ml), or both. After 5 days, RPE morphology was assessed by a light microscope.
# p38 = p38 immunostaining (localization) in RPE cells; conditions: DMEM 5% FBS, 5 days
# [4] = tested on: hTERT HMEnt (HME) breast epithelial cell line; experiment: EMT and FOXS1 transcripts in breast epithelial cells
# Primary human RPE lines = experiment: qPCR of EMT and RPE fate transcripts in primary RPE cultured with NAM for 21 days; assay type: cell-based; conditions: 10 mM NAM, versus vehicle
# Protocol: Cadaver donor globes were received from the National Disease Research Interchange (Philadelphia, Pa., USA), and RPE cells were isolated and grown to establish a RPE monolayer (Blenkinsop et al., (2015), Investigative Ophthalmology & Visual Science 56, 7085-7099; Blenkinsop et al., (2013), Methods Mol Biol 945, 45-65.). Primary human RPE lines were cultured in the presence of Nicotinamide (NAM) (Cat. #N0636; Sigma) at a concentration of 10 mM or vehicle (cell culture grade water) for 21 days. […] Additionally, RPE fate associated protein transcripts were tested by qPCR.
# RPE cells [5] = experiment: Effect of NAM in the TNT-induced EMT model, qPCR; assay type: cell-based, human; conditions: 10 mM NAM
# Protocol: In a parallel experiment, the effect of NAM was tested in an EMT model. EMT was induced in RPE cells using 10 ng/ml TGFβ1 and TNFα. RPE cells were trypsinized and passaged into a 24 well plate. 24 hours after passaging, RPE cells were treated with TGFβ1 and TNFα (TNT condition) for 7 days. To test the effect of NAM, we added 10 mM NAM or vehicle to the medium used for EMT model (using TNT). EMT associated protein transcripts including FOXS1 were analyzed by qPCR.
compound,measurement,setting,value
Oc1ccc(-c2nc(-c3ccncc3)c(-c3ccc(F)cc3)[nH]2)cc1 [SB202190],SLUG transcription,RPE cells [1],stayed at or near control levels
same,SNAIL transcription,RPE cells [1],stayed at or near control levels
same,TWIST transcription,RPE cells [1],stayed at or near control levels
same,growth of three dimensional masses,RPE cells [1],did not grow
same,FOXS1 gene transcription,RPE cells [2],"elevated in the TnT condition, but not when the p38 inhibitor was added"
TNFα,RPE morphology,RPE cells [3],acquired a fibroblastic morphology
same,p38 localization,p38,found cytoskeletally
TGFβ: cytokine used at 10 ng/ml to induce EMT,RPE morphology,RPE cells [3],acquired a fibroblastic morphology
same,FOXS1 transcript,[4],increased
same,p38 localization,p38,localized predominantly perinuclearly
"NC(=O)c1cccnc1 [NAM, Nicotinamide]",EMT associated marker FOXS1,Primary human RPE lines,inhibited
same,EMT associated marker SNAIL,Primary human RPE lines,inhibited
same,RPE marker BEST1 expression,Primary human RPE lines,increased expression
same,RPE marker RPE65 expression,Primary human RPE lines,increased expression
same,EMT marker SNAIL,RPE cells [5]; as early as day 1 post induction of EMT,inhibited
same,EMT marker FOXS1,RPE cells [5]; by day 3 post induction of EMT,clear inhibition
same,EMT marker SLUG,RPE cells [5]; by day 5 post induction of EMT,clear inhibition
